Data: US20230192722A1, “SALTS AND SOLID FORMS OF AN FGFR INHIBITOR AND PROCESSES OF PREPARING THEREOF” (Incyte Corporation, priority 2021, published 2023)

Key:
Type in all cases: physicochemical
[1] = Solubility measurement of Compound 1 Phosphate, saturated in different solvent systems, measured by HPLC
Procedure: The Compound 1 Phosphate sample was saturated in different solvent systems (Table 4) at 25° C. and 50° C., respectively. Each solubility was measured by HPLC.

[2] = Phase equilibration of form mixtures, relative stability of Compound 1 Phosphate forms (XRPD); details: mixture of Forms I, II
Procedure: The relative stability of the three forms (Forms I, II, and III) as well as amorphous form of Compound 1 Phosphate studied and compared by phase equilibration of mixture experiments in EtOH and in a mixture solvent of EtOH/H2O (9/1). As summarized in Table 16, Compound 1 Phosphate (Form I) was mixed and slurred with other forms in EtOH and in a mixed solvent of EtOH/H2O (9/1) at 50° C. for 6 h respectively.

[3] = Solubility measurement of Compound 1 Phosphate, saturated in different solvent systems, measured by HPLC; details: DCM, 50° C. column, measured at 40° C.

Structure (SMILES): COc1cc2[nH]nc(-c3ccc(N4CCN5C[C@H](O)C[C@H]5C4)nc3)c2nc1-c1cccc(C)c1C.O=P(O)(O)O [Compound 1 Phosphate, (7R,8aS)-2-(5-(5-(2,3-dimethylphenyl)-6-methoxy-1H-pyrazolo[4,3-b]pyridin-3-yl)pyridin-2-yl)octahydropyrrolo[1,2-a]pyrazin-7-ol phosphate]
- Solubility ([1]; 1,4-dioxane, 25° C.): 150 µg/mL
- Solubility ([1]; 1,4-dioxane, 50° C.): 230 µg/mL
- Solubility ([1]; 2-Butanone, 25° C.): 100 µg/mL
- Solubility ([1]; 2-Butanone, 50° C.): 130 µg/mL
- Solubility ([1]; Acetone, 25° C.): 70 µg/mL
- Solubility ([1]; Acetone, 50° C.): 100 µg/mL
- Solubility ([1]; CH3CN, 25° C.): <10 µg/mL
- Solubility ([1]; CH3CN, 50° C.): 10 µg/mL
- Solubility ([1]; CHCl3, 25° C.): 60 µg/mL
- Solubility ([1]; CHCl3, 50° C.): 130 µg/mL
- Solubility ([1]; DCM, 25° C.): 30 µg/mL
- Solubility ([1]; DMF, 25° C.): 14410 µg/mL
- Solubility ([1]; DMF, 50° C.): 19060 µg/mL
- Solubility ([1]; DMSO, 25° C.): 33740 µg/mL
- Solubility ([1]; DMSO, 50° C.): 44990 µg/mL
- Solubility ([1]; EtOAc, 25° C.): 50 µg/mL
- Solubility ([1]; EtOAc, 50° C.): 60 µg/mL
- Solubility ([1]; EtOH, 25° C.): 530 µg/mL
- Solubility ([1]; EtOH, 50° C.): 680 µg/mL
- Solubility ([1]; Ethyl formate, 25° C.): 120 µg/mL
- Solubility ([1]; Ethyl formate, 50° C.): 140 µg/mL
- Solubility ([1]; H2O, 25° C.): 260 µg/mL
- Solubility ([1]; H2O, 50° C.): 1100 µg/mL
- Solubility ([1]; Heptane, 25° C.): <10 µg/mL
- Solubility ([1]; Heptane, 50° C.): <10 µg/mL
- Solubility ([1]; IPA, 25° C.): 230 µg/mL
- Solubility ([1]; IPA, 50° C.): 280 µg/mL
- Solubility ([1]; IPAc, 25° C.): 20 µg/mL
- Solubility ([1]; IPAc, 50° C.): 30 µg/mL
- Solubility ([1]; MIBK, 25° C.): 160 µg/mL
- Solubility ([1]; MIBK, 50° C.): 160 µg/mL
- Solubility ([1]; MTBE, 25° C.): 60 µg/mL
- Solubility ([1]; MTBE, 50° C.): 70 µg/mL
- Solubility ([1]; MeOEtOH, 25° C.): 4140 µg/mL
- Solubility ([1]; MeOEtOH, 50° C.): 5570 µg/mL
- Solubility ([1]; MeOH, 25° C.): 2260 µg/mL
- Solubility ([1]; MeOH, 50° C.): 2440 µg/mL
- Solubility ([1]; THF, 25° C.): 60 µg/mL
- Solubility ([1]; THF, 50° C.): 70 µg/mL
- Solubility ([1]; Toluene, 25° C.): <10 µg/mL
- Solubility ([1]; Toluene, 50° C.): 20 µg/mL
- Solubility (almost insoluble) ([1]; in CH3CN, CHCl3, DCM, 1,4-dioxane, MIBK, toluene, THF, acetone, n-BuOH, MTBE, EtOH, EtOAc, ethyl formate, heptane, iso-butyl acetate, IPAc, n-PrOH, IPA, MEK at 25° C. and 50° C., and in H2O at 25° C.): < 1000 µg/mL
- Solubility (relatively good solubility) ([1]; in DMF and DMSO, at both 25° C. and 50° C.): > 10000 µg/mL
- Solubility (slightly soluble) ([1]; in MeOH and MeOEtOH at 25° C. and 50° C., and in H2O at 50° C.): 1000 to 10000 µg/mL
- Solubility ([1]; iso-Butyl acetate, 25° C.): 110 µg/mL
- Solubility ([1]; iso-Butyl acetate, 50° C.): 150 µg/mL
- Solubility ([1]; n-BuOH, 25° C.): 360 µg/mL
- Solubility ([1]; n-BuOH, 50° C.): 470 µg/mL
- Solubility ([1]; n-PrOH, 25° C.): 400 µg/mL
- Solubility ([1]; n-PrOH, 50° C.): 400 µg/mL
- Product Solid Form ([2]; III and Amorphous slurried in EtOH at 50° C. for 6 h): transformed to Form I
- Product Solid Form ([2]; III and Amorphous slurried in EtOH/H2O (9/1) at 50° C. for 6 h): transformed to Form I
- Solubility [3]: 0.05 (40° C.) mg/mL
